Laboratory results as given in patent publication US20260242391A1 (priority 2023, published 2026).

Assays:
in vitro = conditions: human
HL-60 = HL-60 differentiation potency; format: cell-based; conditions: Homo sapiens

Compound | IC50 (in vitro) [nM] | EC50 (HL-60) [nM]
C[C@H]1[C@@H](OCC2(O)CCC(C(=O)O)CC2)O[C@@H]2O[C@@]3(C)CC[C@H]4[C@H](C)CC[C@@H]1[C@@]24OO3 (stereo partly drawn) [Compound 211, 4-hydroxy-4-((((3R,5aS,6R,8aS, 9R,10S,12R, 12aR)-3,6,9-trimethyldeca-hydro-12H-3,12-epoxy[1,2]dioxepino[4,3-i]isochromen-10-yl)oxy)methyl) cyclohexane-1-carboxylic acid] | > 20000 | 11400
C[C@H]1[C@@H](O[C@H]2CC[C@@H](C(=O)NC3(C(=O)O)CC3)CC2)O[C@@H]2O[C@@]3(C)CC[C@H]4[C@H](C)CC[C@@H]1[C@@]24OO3 [Compound 262, 1-((1R,4s)-4-(((3R,5aS,6R,8aS, 9R,10S,12R, 12aR)-3,6,9-trimethyldeca-hydro-12H-3,12-epoxy[1,2]dioxepino[4,3-i]isochromen-10-yl)oxy)cyclohexane-1-carboxamido) cyclopropane-1-carboxylic acid] | > 20000 | 11400
C[C@H]1[C@@H](OCc2ccc(C(=O)N3CCC(C(=O)O)CC3)cc2)O[C@@H]2O[C@@]3(C)CC[C@H]4[C@H](C)CC[C@@H]1[C@@]24OO3 [Compound 277, 1-(4-((((3R,5aS,6R,8aS, 9R,10S,12R, 12aR)-3,6,9-trimethyldeca-hydro-12H-3,12-epoxy[1,2]dioxepino[4,3-i]isochromen-10-yl)oxy)methyl)benzoyl) piperidine-4-carboxylic acid] | > 20000 | 1780
C[C@H]1[C@@H](OCc2ccc(C(=O)N[C@@H]3C[C@H](C(=O)O)C[C@H]3O)cc2)O[C@@H]2O[C@@]3(C)CC[C@H]4[C@H](C)CC[C@@H]1[C@@]24OO3 [Compound 288, (1S,3R,4R)-3-hydroxy-4-(4-((((3R,5aS,6R,8aS, 9R,10S,12R, 12aR)-3,6,9-trimethyldeca-hydro-12H-3,12-epoxy[1,2]dioxepino[4,3-i]isochromen-10-yl)oxy)methyl)benzamido) cyclopentane-1-carboxylic acid] | > 20000 | 5580
C[C@H]1[C@@H](OCC2CCN(C(=O)C(=O)O)CC2)O[C@@H]2O[C@@]3(C)CC[C@H]4[C@H](C)CC[C@@H]1[C@@]24OO3 [Compound 203, 2-oxo-2-(4-((((3R,5aS,6R,8aS, 9R,10S,12R, 12aR)-3,6,9-trimethyldeca-hydro-12H-3,12-epoxy[1,2]dioxepino[4,3-i]isochromen-10-yl)oxy)methyl)piperidin-1-yl)acetic acid] | > 20000 | 17500
C[C@H]1[C@@H](Oc2ccccc2OCC(=O)O)O[C@@H]2O[C@@]3(C)CC[C@H]4[C@H](C)CC[C@@H]1[C@@]24OO3 [Compound 230, 2-(2-(((3R,5aS,6R,8aS, 9R,10S,12R, 12aR)-3,6,9-trimethyldeca-hydro-12H-3,12-epoxy[1,2]dioxepino[4,3-i]isochromen-10-yl)oxy)phenoxy) acetic acid] | > 20000 | 2870
C[C@H]1[C@@H](OC[C@H]2CC[C@@H](C(=O)NC34CCC(C(=O)O)(C3)C4)CC2)O[C@@H]2O[C@@]3(C)CC[C@H]4[C@H](C)CC[C@@H]1[C@@]24OO3 [Compound 295, 4-((1R,4s)-4-((((3R,5aS,6R,8aS, 9R,10S,12R, 12aR)-3,6,9-trimethyldeca-hydro-12H-3,12-epoxy[1,2]dioxepino[4,3-i]isochromen-10-yl)oxy)methyl)cyclohexane-1-carboxamido) bicyclo[2.1.1] hexane-1-carboxylic acid] | > 20000 | 197
C[C@H]1[C@@H](O[C@H]2C[C@@H](C(=O)NC34C5C6C3C3C4C5C63C(=O)O)C2)O[C@@H]2O[C@@]3(C)CC[C@H]4[C@H](C)CC[C@@H]1[C@@]24OO3 (stereo partly drawn) [Compound 255, 4-((1R,3s)-3-(((3R,5aS,6R,8aS, 9R,10S,12R, 12aR)-3,6,9-trimethyldeca-hydro-12H-3,12-epoxy[1,2]dioxepino[4,3-i]isochromen-10-yl)oxy)cyclo-butane-1-carboxamido) cubane-1-carboxylic acid] | > 20000 | 2320

The remaining lines, values ahead:

IC50 (in vitro) [nM] | EC50 (HL-60) [nM] | Compound
> 20000 | 9200 | C[C@H]1[C@@H](O[C@H]2CC[C@@H](C(=O)N[C@H]3C[C@@H](C(=O)O)C3)CC2)O[C@@H]2O[C@@]3(C)CC[C@H]4[C@H](C)CC[C@@H]1[C@@]24OO3 [Compound 228, (1S,3s)-3-((1R,4S)-4-(((3R,5aS,6R,8aS, 9R,10S,12R, 12aR)-3,6,9-trimethyldeca-hydro-12H-3,12-epoxy[1,2]dioxepino[4,3-i]isochromen-10-yl)oxy)cyclo-hexane-1-carboxamido) cyclobutane-1-carboxylic acid]
3000 | 53.1 | C[C@H]1[C@H](OCc2c(Cl)cc(C(=O)O)cc2S(C)(=O)=O)O[C@@H]2O[C@@]3(C)CC[C@H]4[C@H](C)CC[C@@H]1[C@@]24OO3 [Compound 217, 3-chloro-5-(methylsulfonyl)-4-((((3R,5aS,6R,8aS, 9R,10R,12R, 12aR)-3,6,9-trimethyldeca-hydro-12H-3,12-epoxy[1,2]dioxepino[4,3-i]isochromen-10-yl)oxy)methyl) benzoic acid]
6800 | 240 | C[C@H]1[C@@H](OCc2ccc(C(=O)N[C@H]3CC[C@@H](C(=O)O)C3)cc2)O[C@@H]2O[C@@]3(C)CC[C@H]4[C@H](C)CC[C@@H]1[C@@]24OO3 [Compound 275, (1R,3S)-3-(4-((((3R,5aS,6R,8aS, 9R,10S,12R, 12aR)-3,6,9-trimethyldeca-hydro-12H-3,12-epoxy[1,2]dioxepino[4,3-i]isochromen-10-yl)oxy)methyl)benzamido) cyclopentane-1-carboxylic acid]
1520 | 98.2 | C[C@H]1[C@@H](Oc2ccc(C(=O)N[C@H](C(=O)O)C3CCC3)cc2)O[C@@H]2O[C@@]3(C)CC[C@H]4[C@H](C)CC[C@@H]1[C@@]24OO3 [Compound 251, (S)-2-cyclobutyl-2-(4-(((3R,5aS,6R,8aS, 9R,10S,12R, 12aR)-3,6,9-trimethyldeca-hydro-12H-3,12-epoxy[1,2]dioxepino[4,3-i]isochromen-10-yl)oxy)benzamido) acetic acid]
5510 | 66.5 | C[C@H]1[C@@H](OCc2c(F)cc(C(=O)O)cc2Cl)O[C@@H]2O[C@@]3(C)CC[C@H]4[C@H](C)CC[C@@H]1[C@@]24OO3 [Compound 215, 3-chloro-5-fluoro-4-((((3R,5aS,6R,8aS, 9R,10S,12R, 12aR)-3,6,9-trimethyldeca-hydro-12H-3,12-epoxy[1,2]dioxepino[4,3-i]isochromen-10-yl)oxy)methyl) benzoic acid]
9610 | 124 | C[C@H]1[C@@H](Oc2ccc(OC(C)(C)C(=O)O)cc2)O[C@@H]2O[C@@]3(C)CC[C@H]4[C@H](C)CC[C@@H]1[C@@]24OO3 [Compound 221, 2-methyl-2-(4-(((3R,5aS,6R,8aS, 9R,10S,12R, 12aR)-3,6,9-trimethyldeca-hydro-12H-3,12-epoxy[1,2]dioxepino[4,3-i]isochromen-10-yl)oxy)phenoxy) propanoic acid]
720 | 74.2 | C[C@H]1[C@@H](Oc2ccc(O[C@H]3CC[C@@H](C(=O)O)CC3)cc2)O[C@@H]2O[C@@]3(C)CC[C@H]4[C@H](C)CC[C@@H]1[C@@]24OO3 [Compound 243, (1R,4s)-4-(4-(((3R,5aS,6R,8aS, 9R,10S,12R, 12aR)-3,6,9-trimethyldeca-hydro-12H-3,12-epoxy[1,2]dioxepino[4,3-i]isochromen-10-yl)oxy)phenoxy) cyclohexane-1-carboxylic acid]
